In US8158589B2, “Peptides with the capacity to bind to transforming growth factor β1 (TGF-β1)” (Proyecto Biomedicine Cima, S.L., priority 2003, dated 2012):
Ends that are not written are not given here.

What was measured:
TGF-β1 [1] = target: T1, TGF-β1 (Mus musculus, UniProt P04202); assay: Model of acute liver damage induced by CCl4, type I collagen mRNA by real time PCR; format: in vivo, mice
T1 construct: from tissue; host or cells: liver of Balb/C mice (CCl4 model); lung of C57BL/6 mice (bleomycin model)
T1 sequence (P04202 279-390 limits assumed): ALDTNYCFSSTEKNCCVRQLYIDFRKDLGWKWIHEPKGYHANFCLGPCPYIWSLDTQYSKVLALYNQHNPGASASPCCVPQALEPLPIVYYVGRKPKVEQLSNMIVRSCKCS
Procedure: Acute liver damage generates a cascade of effects and physiological responses, including elevations in the concentrations of TGF-β1. This elevation is responsible for the expression of the type I collagen gene, among others. In this model of acute liver damage, female Balb/C mice weighing 25 to 30 g, were orally administered a dose of 2 μl of CCl4 (per gram of body weight) dissolved in an equivalent volume of corn oil (volumetric ratio of 1:1). The control group received an equivalent volume of corn oil only, and the treated groups received (following the single oral administration of CCl4 in corn oil) 50 μg of peptide in 500 μl of 1% physiological saline solution in DMSO (dimethyl sulfoxide) every 24 h. After 72 hours all animals were sacrificed, and the liver samples were processed. To evaluate mRNA expression, liver tissue was frozen in liquid nitrogen and stored at −80° C. until further use. Other liver tissue samples were stored in OCT® or Tissue-Tek® (Sakura Finetek B.V.) and processed in the same way as the samples used for mRNA studies. Other liver samples were fixed in 10% buffered formalin solution, embedded in paraffin and processed for their histological evaluation. The amount of mRNA encoding type I collagen was quantified in all groups using a quantitative polymerase chain reaction (PCR) technique. […] The capacity of the testing peptides to block the acute damage, as assessed by measuring the levels of induced type I collagen mRNA was quantified by real time PCR. […] The peptides tested were obtained by conventional solid peptide synthesis procedures (Merrifield R B. J Am Chem Soc 1963; 85:2149-2154; Atherton E et al. J Chem Soc Perkin Trans 1981; 1:538-546).

TGF-β1 [2] = target: T2, TGF-β1 (Rattus norvegicus, UniProt P17246); assay: Corneal fibrosis and haze after 1 N NaOH damage, topical eye drops, photographs analysed with ImageJ; format: in vivo, Long-Evans rats; conditions: fifth formulation eye drops, treated right eye vs control left eye
T2 construct: from tissue; host or cells: cornea of Long-Evans rats
T2 sequence (P17246 279-390 limits assumed): as the sequence (P04202 279-390 limits assumed) above
Excerpt: Male Long-Evans rats aged 10 weeks were used, divided into 5 groups: • Group 1: 12 rats, 6 treated with dexamethasone and 6 treated with mitomycin C • Group 2: 12 rats, 6 treated with p17 of the first formulation (see section 6.1.2.b) and 6 treated with p144 of the first formulation (see section 6.1.2.b) • Group 3: 12 rats, 6 treated with p17 of the second formulation (see section 6.1.2.b) and 6 treated with p144 of the second formulation (see section 6.1.2.b) • Group 4: 12 rats, 6 treated with p17 of the third formulation (see section 6.1.2.b) and 6 treated with p144 of the third formulation (see section 6.1.2.b) • Group 5: 12 rats, 6 treated with p17 of the fourth formulation (see section 6.1.2.b) and 6 treated with p144 of the fourth formulation (see section 6.1.2.b) • Group 6: 12 rats, 6 treated with p17 of the fifth formulation (see section 6.1.2.b) and 6 treated with p144 of the fifth formulation (see section 6.1.2.b)
To perform the damage in the cornea, the animals were anesthetized with isoflurane and a 5 mm Whatman paper disc impregnated in 1 N NaOH for 30 seconds was applied to them in the central part of the eye. After the damage, they were washed with abundant physiological saline serum and an antibiotic ointment was applied to them to prevent possible infections in the affected area.
After conducting several in vivo studies with the previously described groups of animals, it could be concluded that the chemical damage occurring after the application of NaOH for 30 seconds caused an excessive lesion for the study which was to be conducted, therefore it was decided to conduct new experiments reducing the time to 15 seconds.
It was randomly established that the left eye of each animal would act as a control and that the right eye would be the treated eye, such that the same animals acts as a control in addition to being treated. It must be pointed out that all the animals received antibiotic treatment in both eyes daily only during the first week of the study for the purposes of avoiding microbial keratitis.
Starting from 0.15% sodium hyaluronate (Hyabak 10 mL, Thea) without preservatives: • p144: 20 mg were dissolved in 5 ml of eye drops, 40 μl of saturated concentrated NaOH were incorporated, stirring and adding in portions of 5 μl. It was sonicated until solubilization. To adjust the pH, 500 μl of 1M Hepes were added, such that the pH changed from 10.5 to 7 • p144 control: 40 μl of saturated NaOH and 500 μl of 1 M HEPES (final concentration of HEPES 50 mM) • p17: 20 mg were dissolved in 5 ml of the eye drops, it was sonicated until complete solubilization and it was incorporated to the vial with a 10 ml syringe and a blue needle to perforate the filter of the contained (final concentration 2 mg/ml) • p17 control: non-manipulated eye drops • Note: The formulations were maintained at 4° C. throughout the study.
The administration of the treatment was initiated twenty-four hours after the damage. After that time a follow-up of the damage was performed, which consisted of taking photographs at days 0, 7, 14, 21, 28 and 35. To take the photographs the animals were anesthetized with isoflurane. Photographs were taken of both the control eye (left) and of the treated eye (right) with and without fluorescein. The photographs with fluorescein allowed to observe the evolution of the epithelial closure of the generated lesion, whereas the photographs without fluorescein show the evolution of the haze of the lesioned area. […]

TGF-β1 [3] = target: T3, TGF-β1 (Homo sapiens, UniProt P01137); assay: Western Blot of p-Smad2, Smad2/3 and Smad7 in primary culture of rabbit corneal fibroblasts; format: cell-based; set-up: host or cells: added to a primary culture of rabbit corneal fibroblasts
T3 sequence (P01137 279-390 limits assumed, species assumed): as the sequence (P04202 279-390 limits assumed) above, with S75A counted along it
Procedure: (§1) Therefore, Western Blot and immunofluorescence studies were conducted to determine, from cells extracted from the in vivo studies, the signaling pathway used by the peptides administered topically. It should be emphasized that said studies were conducted on fibroblasts from rabbit cornea and not from rat cornea. This decision was made due to the difficulty entailed in isolating fibroblasts from rodent eyes.
Since the scientific literature repeatedly describes the TGF-β1 signaling pathways, the decision was made to go into depth in such pathways by means of the techniques described in the methodology section. Said pathways involve the study of the Smad protein family, specifically the study of the isoforms Smad2, 2/3 and 7.
To that end, protein extracts obtained from the primary culture of rabbit fibroblasts were treated with TGF-β1 at concentrations of 0, 3 and 5 ng/ml and, 50 and 200 μg/ml of peptide p17 and p144.

TGF-β1 [4] = target: T3, TGF-β1; assay: Immunofluorescence of p-Smad2 translocation to the nucleus in rabbit corneal fibroblasts; format: cell-based; set-up: host or cells: added to a primary culture of rabbit corneal fibroblasts; conditions: TGF-β1 treated rabbit corneal fibroblasts
Procedure: as §1

[5] = primary culture, TGF-β1 and peptide

In the case of TSLDASIIWAMMQN [P144], the “% Inhibition of type I collagen mRNA induction (in vivo TGF-β1 biological activity)” value (TGF-β1 [1]; Balb/C mice, oral CCl4, 50 μg of peptide every 24 h, sacrifice after 72 hours) is reported as −3.51 ± 36%, the “inhibition of the biological activity of TGF-β1 in vivo (in words)” value (TGF-β1 [1]; acute liver damage, type I collagen mRNA) is reported as “does not show any activity” and the corneal haze (TGF-β1 [2]) is reported as “clear decrease”. The “epithelial closure (fluorescein)” value (TGF-β1 [2]) was “clear decrease”, the “expression of p-Smad2” value (TGF-β1 [3]; peptide 50 μg/ml) was “slight inhibition” and the “expression of p-Smad2” value (TGF-β1 [3]; peptide 200 μg/ml) was “reaching the values of the controls”. The “expression of Smad 2/3” value (TGF-β1 [3]; [5]) was “not affected”, the “expression of Smad 7” value (TGF-β1 [3]; [5]) was “not modified” and the “translocation of p-Smad2 to the nucleus” value (TGF-β1 [4]) was “inhibited”.
